According to patent publication US20210078958A1, “QUINAZOLINE DERIVATIVE AND USE THEREOF” (MEDSHINE DISCOVERY INC., priority 2017, published 2021):

Assays:
OE19 cells = experiment: CTG assay of OE19 cells; format: cell-based; details: Homo sapiens, 72 hours of cell culture, Cell Titer Glo
Method: OE19 cells with saturation of 80%-90% were digested with trypsin, centrifuged, resuspended and counted. The concentration of cells was adjusted to […]. OE19 cells were added to a 96-well cell culture plate to 8000 OE19 cells per well. The cells were cultured in a cell incubator containing 5% CO2 at 37° C. overnight.
The stock solution of the test compounds was serially 3-fold diluted with DMSO to a total of 10 concentrations. Before the start of the assay, the serially diluted test compounds were further diluted to 10× compound solutions (the compound with a highest concentration contains 1% DMSO) with cell culture medium under sterile conditions. The prepared 10× compound solutions were added to the cell culture plate, and the 10 μL compound solution was added to each well. In this way, the final concentrations of staurosporine as the standard control and all the test compounds were obtained starting from […] as the initial concentration in a 3-fold serial dilution to get 10 test concentrations.
After 72 hours of cell culture, the 96-well cell culture plate was taken out. Cell Titer Glo reagent was added at […], mixed, centrifuged, and incubated at room temperature in the dark for 10 minutes. The cell plate was placed in Envision for reading.
The inhibition rate was calculated according to original data as follows:
Inhibition %=(ZPE−sample detection value)/(ZPE−HPE)×100%
The well containing 10 mM staurosporine on DAY3 (the first day of the assay is the day when compounds were added, and DAY3 is the day when reading is perfomed) was used as the HPE (100% inhibition control) well, and the well containing 0.1% DMSO on DAY3 was used as the ZPE (0% inhibition control) well. Each concentration of test compounds was tested in duplicate.
Non-linear regression analysis was performed using the processed data and GraphPad Prism 6 analysis software to obtain a dose-response curve, and the half-inhibitory concentration (IC50) of the test compounds on OE19 cells was calculated.

HER2 (ErbB2) = HER2 (ErbB2) (Homo sapiens, UniProt P04626); experiment: in vitro enzyme activity, HER2 (ErbB2); format: biochemical; details: human ErbB2, [γ-33P]ATP, poly(Glu, Tyr) substrate
Method: The purpose of this assay is to detect the in vitro inhibitory activity of compounds on HER1 (ErbB1), HER2 (ErbB2), and HER4 (ErbB4). The enzymes used in this assay are human ErbB1, ErbB2 and ErbB4. Eurofins Pharma Discovery Service provided the method for activity detection.
Steps and Method of the Assay (96-Well Plate):
A buffer solution of the test compounds in a dilution of 5-fold (5 μL), polypeptide substrate poly(Glu, Tyr) (4:1) (2.5 μL), ErbB (4-20 ng, 2.5 μL), MnCl2 (50 mM, 1.25 μL), dH2O (3.75 μL), and [γ-^33P]ATP (10 μL) were added, and incubated at 30° C. for 10 minutes. The reaction was terminated by adding 3% phosphoric acid. 10 μL of the sample was taken and transferred to Filtermate A. The filter disc was washed 3 times with 75 mM phosphoric acid and once with methanol. The filter disc was transferred to a sealed plastic bag and the scintillation mixture (4 mL) was added. The intensity of the emitted photon was detected by a scintillation luminescence counter. The CPM (times/min) of the enzyme sample was compared with the CPM of the internal control sample. The level of photon intensity reflected the degree of the tyrosine kinase activity.

CYP2C19 = biological target: T1, CYP2C19 (Homo sapiens, UniProt P33261); experiment: inhibition of CYP enzyme activity in human liver microsome, CYP2C19; format: in vitro ADME
T1 construct: in the assay of CYP enzyme activity in human liver microsome; from tissue; host or cells: human liver microsome
From the text: The results of the compounds disclosed herein and the reference compound Poziotinib in the assay of CYP enzyme activity in human liver microsome were shown in the following table (Table 8).

[1] = Assay Example 7: pharmacokinetics in mice; format: in vivo; details: mouse, female BALB/c mice, plasma, dose not given; for Tmax / half-life: oral; for AUC(0-t) / Cmax: oral plasma exposure
Method: Purpose of the assay: this assay aims to investigate in vivo plasma pharmacokinetics of the example compounds disclosed herein and the reference compound in female BALB/c mice after the single intravenous injection and intragastric administration thereof.
Animals of the assay: female BALB/c nude mice, 7-9 weeks old, weighted 17-23 grams; supplier: shanghai sippr bk laboratory animals Ltd.
Sample collection: at each time point, a 0.03 mL blood sample was collected from the saphenous vein of the test animal by puncture, and the actual blood collection time was recorded. All blood samples were added into commercial EDTA-K2 anticoagulation tubes with a specification of 1.5 mL (the supplier was Jiangsu KANGJIAN Medical Apparatus Co., Ltd.). Within half an hour after the blood sample was collected, the blood sample was centrifuged at 3000 g at 4° C. for 10 minutes, and the supernatant plasma was drawn, quickly placed in dry ice, and stored in a refrigerator at −80° C. for LC-MS/MS analysis.
Data analysis: Plasma concentrations were processed using a non-compartmental model of WinNonlin™ Version6.3 (Pharsight, MountainView, Calif.) pharmacokinetic software, and pharmacokinetic parameters Cmax, Tmax, T1/2, and AUC0-last were calculated using a linear log trapezoid method.

T1 sequence (P33261 whole entry): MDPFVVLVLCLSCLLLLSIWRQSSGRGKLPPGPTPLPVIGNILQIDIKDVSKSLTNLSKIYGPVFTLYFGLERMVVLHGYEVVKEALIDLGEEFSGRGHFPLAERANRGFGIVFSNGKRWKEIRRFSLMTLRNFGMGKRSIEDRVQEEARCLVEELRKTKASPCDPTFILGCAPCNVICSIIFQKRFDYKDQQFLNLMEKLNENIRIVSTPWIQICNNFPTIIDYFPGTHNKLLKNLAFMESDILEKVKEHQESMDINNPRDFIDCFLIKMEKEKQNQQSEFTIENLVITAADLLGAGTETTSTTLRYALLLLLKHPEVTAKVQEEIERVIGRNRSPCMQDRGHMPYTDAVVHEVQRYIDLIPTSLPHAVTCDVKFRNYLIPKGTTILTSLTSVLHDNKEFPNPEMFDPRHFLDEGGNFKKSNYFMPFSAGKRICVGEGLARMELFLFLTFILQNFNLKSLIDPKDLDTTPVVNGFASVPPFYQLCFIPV
Sequence of HER2 (ErbB2) (P04626 23-1255): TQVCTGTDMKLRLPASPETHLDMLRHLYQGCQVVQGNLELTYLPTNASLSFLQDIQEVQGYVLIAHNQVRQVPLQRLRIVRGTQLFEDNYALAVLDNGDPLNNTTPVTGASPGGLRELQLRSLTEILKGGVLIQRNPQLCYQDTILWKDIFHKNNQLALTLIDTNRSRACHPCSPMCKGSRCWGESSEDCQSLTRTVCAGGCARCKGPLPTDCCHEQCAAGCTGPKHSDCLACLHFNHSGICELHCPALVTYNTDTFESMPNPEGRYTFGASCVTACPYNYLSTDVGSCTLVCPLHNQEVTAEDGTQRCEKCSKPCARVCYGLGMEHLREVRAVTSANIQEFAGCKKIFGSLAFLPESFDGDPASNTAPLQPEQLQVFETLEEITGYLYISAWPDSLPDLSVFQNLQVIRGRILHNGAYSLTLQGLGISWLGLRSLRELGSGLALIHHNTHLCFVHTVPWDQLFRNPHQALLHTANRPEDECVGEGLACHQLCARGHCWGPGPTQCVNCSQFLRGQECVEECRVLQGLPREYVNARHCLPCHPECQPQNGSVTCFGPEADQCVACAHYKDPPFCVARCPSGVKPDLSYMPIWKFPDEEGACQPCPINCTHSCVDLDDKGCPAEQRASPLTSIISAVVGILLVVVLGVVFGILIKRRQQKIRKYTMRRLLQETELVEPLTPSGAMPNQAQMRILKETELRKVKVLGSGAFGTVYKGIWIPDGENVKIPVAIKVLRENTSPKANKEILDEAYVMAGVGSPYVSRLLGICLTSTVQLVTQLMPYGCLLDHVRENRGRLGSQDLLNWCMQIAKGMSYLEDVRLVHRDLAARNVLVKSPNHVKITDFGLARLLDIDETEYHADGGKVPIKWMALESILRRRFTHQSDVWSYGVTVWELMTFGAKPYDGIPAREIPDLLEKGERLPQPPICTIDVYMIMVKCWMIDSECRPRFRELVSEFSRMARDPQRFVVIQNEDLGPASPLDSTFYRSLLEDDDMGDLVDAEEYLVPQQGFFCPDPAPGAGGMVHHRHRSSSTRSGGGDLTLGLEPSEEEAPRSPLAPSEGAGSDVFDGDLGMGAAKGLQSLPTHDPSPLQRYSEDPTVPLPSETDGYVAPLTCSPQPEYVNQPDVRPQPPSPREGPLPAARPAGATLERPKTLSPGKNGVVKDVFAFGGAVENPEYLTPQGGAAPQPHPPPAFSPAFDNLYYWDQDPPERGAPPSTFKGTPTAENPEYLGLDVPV

| SMILES | IC50 (OE19 cells) [nM] | IC50 (HER2 (ErbB2)) [nM] | IC50 (CYP2C19) [nM] | inhibition of CYP enzyme CYP2C19 (CYP2C19) | Tmax [1] [h] | half-life [1] [h] | AUC(0-t) [1] [µM·h] | Cmax [1] [µM] |
| --- | --- | --- | --- | --- | --- | --- | --- | --- |
| C=CC(=O)N1[C@@H]2CC[C@H]1C[C@H](Oc1cc3c(Nc4ccc(Cl)c(Cl)c4F)ncnc3cc1OC)C2 [Example 8] | 0.48 | 5.5 | – | – | – | – | – | – |
| C=CC(=O)N1[C@@H]2CC[C@H]1C[C@H](Nc1cc3c(Nc4ccc(Cl)c(Cl)c4F)ncnc3cc1OC)C2 [Example 38] | 1.2 | 5 | 11000 | comparable to that of the reference compound Poziotinib | 2 | 3.2 | 122 | 10.6 |
| C=CC(=O)N1CCC(Oc2cc3c(Nc4ccc(Cl)c(Cl)c4F)ncnc3cc2OC)CC1 [Poziotinib, reference compound] | – | – | 12000 | – | 0.25 | 2.3 | 97.9 | 17.3 |
